The values below come from ChEMBL document CHEMBL5316265, “Discovery of Clinical Candidate AZD0095, a Selective Inhibitor of Monocarboxylate Transporter 4 (MCT4) for Oncology” (J Med Chem, 2023).

≈ marks a conversion by molar mass, not a printed value. Bounds are passed on as bounds.

Series [1] in a line: Lipophilicity, logD of the compound at pH 7.4. It is filed as physicochemical. To be noted: buffer.
The nature of series [2]: Aqueous solubility of the compound in pH 7.4 buffer. It is filed as physicochemical.
Series [3] deals with Voltage-gated inwardly rectifying potassium channel KCNH2 (Homo sapiens, UniProt Q12809). The experiment in a line: Inhibition of human ERG. It is filed as toxicity.
Voltage-gated inwardly rectifying potassium channel KCNH2, sequence (Q12809 whole entry): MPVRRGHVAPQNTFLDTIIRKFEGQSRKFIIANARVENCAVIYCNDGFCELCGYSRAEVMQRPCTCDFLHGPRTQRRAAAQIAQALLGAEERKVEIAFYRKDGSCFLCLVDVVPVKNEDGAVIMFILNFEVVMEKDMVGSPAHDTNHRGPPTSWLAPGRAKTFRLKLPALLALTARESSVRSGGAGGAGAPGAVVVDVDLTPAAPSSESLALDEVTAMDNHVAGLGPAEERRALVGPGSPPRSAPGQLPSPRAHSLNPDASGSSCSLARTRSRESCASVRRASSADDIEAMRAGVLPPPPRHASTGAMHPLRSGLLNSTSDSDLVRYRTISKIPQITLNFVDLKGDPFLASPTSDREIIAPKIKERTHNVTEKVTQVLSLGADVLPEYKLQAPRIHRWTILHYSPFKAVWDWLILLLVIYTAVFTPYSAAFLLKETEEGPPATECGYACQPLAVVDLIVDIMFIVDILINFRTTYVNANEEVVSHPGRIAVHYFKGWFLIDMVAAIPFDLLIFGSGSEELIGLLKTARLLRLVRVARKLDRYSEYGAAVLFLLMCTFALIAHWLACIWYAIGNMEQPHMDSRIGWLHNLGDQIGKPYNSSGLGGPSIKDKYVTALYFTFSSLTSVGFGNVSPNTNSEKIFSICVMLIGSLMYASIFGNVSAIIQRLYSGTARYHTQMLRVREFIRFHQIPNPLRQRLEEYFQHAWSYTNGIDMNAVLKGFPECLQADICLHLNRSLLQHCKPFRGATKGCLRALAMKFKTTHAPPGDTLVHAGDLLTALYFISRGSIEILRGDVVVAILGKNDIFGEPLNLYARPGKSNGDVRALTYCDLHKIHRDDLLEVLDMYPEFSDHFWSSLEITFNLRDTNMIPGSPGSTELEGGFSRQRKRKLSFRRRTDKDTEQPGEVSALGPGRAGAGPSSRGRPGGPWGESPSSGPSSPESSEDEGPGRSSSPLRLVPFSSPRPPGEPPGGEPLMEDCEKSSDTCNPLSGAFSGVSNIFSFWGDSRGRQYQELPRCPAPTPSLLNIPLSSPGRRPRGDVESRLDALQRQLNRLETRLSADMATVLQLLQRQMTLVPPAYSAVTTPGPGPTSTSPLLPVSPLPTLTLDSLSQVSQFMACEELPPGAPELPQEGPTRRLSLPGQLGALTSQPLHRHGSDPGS
Series [4] can be described thus: Metabolic stability in rat hepatocytes measured per million cells. Format: ADME, cell-based, Hepatocyte. The following applies: read-out: CLH.
Series [5] is described as follows: Metabolic stability in human hepatocytes measured per million cells. Format: ADME, cell-based, Hepatocyte. The following applies: read-out: CLH.
A short description of series [6]: Oral bioavailability in rat. The following applies: in vivo. It is filed as ADME, organism-based.
The nature of series [7]: Clearance in rat. Format: ADME. To be noted: in vivo.
The target of series [8] is T1, Monocarboxylate transporter 1 (Homo sapiens, UniProt P53985).
T1 sequence (P53985 whole entry): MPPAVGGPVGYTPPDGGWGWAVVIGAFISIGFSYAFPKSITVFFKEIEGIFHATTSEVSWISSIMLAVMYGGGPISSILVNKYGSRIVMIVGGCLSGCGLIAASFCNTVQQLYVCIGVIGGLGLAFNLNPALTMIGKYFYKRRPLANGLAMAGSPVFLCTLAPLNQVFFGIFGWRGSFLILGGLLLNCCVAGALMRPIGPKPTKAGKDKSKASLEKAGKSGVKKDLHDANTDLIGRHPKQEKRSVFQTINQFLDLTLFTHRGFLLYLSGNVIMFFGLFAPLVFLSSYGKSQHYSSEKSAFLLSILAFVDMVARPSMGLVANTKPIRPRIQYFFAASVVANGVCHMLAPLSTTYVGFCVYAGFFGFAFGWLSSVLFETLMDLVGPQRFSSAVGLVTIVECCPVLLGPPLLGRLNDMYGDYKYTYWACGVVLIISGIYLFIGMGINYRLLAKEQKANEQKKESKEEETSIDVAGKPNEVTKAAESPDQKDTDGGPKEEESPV
The experiment in a line: Inhibition of MCT1 in human K562 cells assessed as inhibition of lactate efflux incubated for 1 hr by FLIPR method. It is filed as cell-based.

The nature of series [9]: Apparent permeability of the compound across apical side to basolateral side in human Caco-2 cells. It is filed as ADME, cell-based. Background: Passage across Caco-2 layers is used to estimate intestinal permeability.
The nature of series [10]: Thermodynamic solubility of the compound in FaSSIF using crystalline form of sample at pH 6.5. It is filed as physicochemical. The following applies: read-out: Therm_solubility.
Series [11] is described as follows: Plasma protein binding in human assessed as free fraction. Format: ADME, cell-free.
Series [12] is described as follows: Plasma protein binding in rat assessed as free fraction. It is filed as ADME, cell-free.
Series [13] in a line: Plasma protein binding in dog assessed as free fraction. It is filed as ADME, cell-free, Canis lupus familiaris.
A short description of series [14]: Metabolic stability in human hepatocytes assessed as intrinsic clearance measured per million cells. It is filed as ADME, cell-based, Hepatocyte. To be noted: read-out: CLH.
The nature of series [15]: Metabolic stability in dog hepatocytes assessed as intrinsic clearance measured per million cells. The following applies: read-out: CLH. It is filed as ADME, cell-based, Canis lupus familiaris, Hepatocyte.
The nature of series [16]: Clearance in Wistar rat at 2 mg/kg, iv. To be noted: in vivo. It is filed as ADME, organism-based.
Series [17] is described as follows: Clearance in Beagle dog at 1 mg/kg, iv. Format: ADME, organism-based, Canis lupus familiaris. To be noted: in vivo.
Series [18] can be described thus: Oral bioavailability in Wistar rat at 5 mg/kg. Format: ADME, organism-based. The following applies: in vivo.
A short description of series [19]: Oral bioavailability in Beagle dog at 2 mg/kg. Format: ADME, organism-based, Canis lupus familiaris. The following applies: in vivo.
For the next series, the system named is NCI-H358. The experiment in a line: Antiproliferative activity against human NCI-H358 cells assessed as cell growth inhibition. It is filed as functional.
Series [20] is described as follows: Toxicity in mouse assessed as body weight loss at 100 mg/kg BID administered twice daily for 17 days via oral gavage. It is filed as organism-based. To be noted: in vivo, 408 h, time 17 day.
The nature of series [21]: Toxicity in mouse assessed as body weight loss at 100 mg/kg BID administered twice daily for 17 days via oral gavage in presence of cediranib. It is filed as organism-based. To be noted: in vivo, 408 h, time 17 day.
Series [22] addresses T2, Monocarboxylate transporter 4 (Homo sapiens, UniProt O15427).
T2 sequence (O15427 whole entry): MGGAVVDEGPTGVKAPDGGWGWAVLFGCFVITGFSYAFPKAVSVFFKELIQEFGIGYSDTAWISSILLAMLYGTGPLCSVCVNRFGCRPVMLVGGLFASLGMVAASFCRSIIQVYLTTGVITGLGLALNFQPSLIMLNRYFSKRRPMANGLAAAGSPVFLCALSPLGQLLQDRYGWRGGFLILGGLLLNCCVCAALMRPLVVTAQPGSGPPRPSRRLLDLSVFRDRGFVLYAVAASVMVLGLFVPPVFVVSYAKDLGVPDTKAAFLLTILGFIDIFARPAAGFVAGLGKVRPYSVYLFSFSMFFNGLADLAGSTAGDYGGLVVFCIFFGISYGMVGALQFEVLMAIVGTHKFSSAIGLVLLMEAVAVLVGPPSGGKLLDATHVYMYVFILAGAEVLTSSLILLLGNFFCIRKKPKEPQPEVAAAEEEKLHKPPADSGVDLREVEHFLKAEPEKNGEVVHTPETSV
The series is described as follows: Inhibition of MCT4 in human SK-BR-3 cells assessed as inhibition of lactate efflux incubated for 4 hrs by automated microplate reader analysis. Format: cell-based.

Series [23] in a line: Efflux ratio of apparent permeability basolateral to apical side over apical to basolateral side in human Caco-2 cells. Format: ADME, cell-based.

One may read the logD as lipophilicity at a set pH, counting ionised and neutral species. Low readings indicate lower lipophilicity, high ones higher lipophilicity. In general, solubility refers to the concentration that dissolves in the medium under given conditions. A low value points to little dissolved substance. The IC50 is the point on the concentration scale where inhibition reaches its midpoint. In general, clearance refers to the volume of plasma or blood freed of the substance per unit of time. A word on the Papp A→B: it is the apparent permeability from the apical to the basolateral side of a cell layer. As a reminder, the fraction unbound is free concentration divided by total concentration. The GI50 is the concentration giving 50% growth inhibition. As usually defined, the efflux ratio is a quotient of directional permeabilities that is used to spot active efflux.

In turn, `Cc1nc2nc(C)c(CCNC(=O)c3cnc(-c4ccc([C@@H]5COCCN5C)cc4)cn3)c(C)n2n1` had a logD in [1] of 1.9. This compound displayed a solubility in series [2] of more than 300 µM.

Compound `Cc1nc2nc(C)c(C[C@@H]3CCN(c4ccc(-c5cnc(CN6CCOCC6)cn5)cc4)C3)c(C)n2n1` gave a logD in series [1] of 2.7.

`Cc1nc2nc(C)c(CCNC(=O)c3cnc(-c4ccc(CN5CCOCC5)cc4)cn3)c(C)n2n1` showed a logD in [1] of 1.8. The compound also yielded a solubility in series [2] of 138 µM (≈ 67.1 µg/mL). This compound displayed an IC50 in series [3] of 24 µM. The hepatocyte CLint in [4] was 17 µL/min/1e6 cells; in [5], 2.5 µL/min/1e6 cells. In series [6], the bioavailability is 34%. The compound further had a clearance in [7] of 31 mL/min/kg.

In turn, `Cc1nc2nc(C)c(CCNC(=O)c3nnc(-c4ccccc4)s3)c(C)n2n1` yielded a pH-dependent lipophilicity (logD) in series [1] of 2.5.

For the compound `Cc1nc2nc(C)c(CCC(=O)Nc3nnc(-c4ccccc4)s3)c(C)n2n1`, in series [1], the pH-dependent lipophilicity (logD) stood at 2.8.

In [1], `Cc1nc2nc(C)c(O[C@@H]3CCN(c4ccc(-c5ccc(CN6CCOCC6)nn5)cc4)C3)c(C)n2n1` yielded a log distribution coefficient (logD) of 1.8. Moreover, the concentration for half-maximal inhibition (IC50) in series [3] was 29 µM; in series [8] it was more than 30 µM. Moreover, the apical-to-basolateral permeability (Papp A→B) in series [9] stood at 13 ×10⁻⁶ cm/s. Further, the solubility thermodynamic in [10] was 839 µM (≈ 420 µg/mL). The unbound share (fraction unbound) in [11] was determined as 0.32; in series [12], 0.3; in series [13] it was 0.39. The values for the hepatocyte CLint in [14] and in [15] were 1.9 µL/min/1e6 cells and 3.3 µL/min/1e6 cells, respectively. For the same compound, the clearance stood at 15 mL/min/kg in series [16] and 14 mL/min/kg in [17]. Also, the bioavailability in [18] came to 106%; in series [19] it was 84%. The 50% growth inhibitory concentration (GI50) in the series with NCI-H358 is 0.026 µM. The Activity result in [20] and in [21] was “Non-Toxic” in each case.

For the compound `Cc1nc2ncnn2c(C)c1CCC(=O)Nc1nnc(-c2ccc(C(C)C)cc2)s1`, the log distribution coefficient (logD) in series [1] came out at 3.7.

Regarding `Cc1nc2nc(C)c(C[C@@H]3CCN(c4cnc(-c5ccc(CN6CCN(C)CC6)cc5)cn4)C3)c(C)n2n1`, in series [1], the pH-dependent lipophilicity (logD) is 2. Moreover, in series [3], the IC50 was more than 24 µM. The results for the hepatocyte CLint in [4] and in series [5] were less than 2 µL/min/1e6 cells and 1.9 µL/min/1e6 cells, respectively. The bioavailability in series [6] stood at 61%. This compound also yielded a clearance in series [7] of 29 mL/min/kg.

Take `Cc1nc2nc(C)c(O[C@@H]3CCN(c4ccc(-c5ccc(CN6CCN(C)CC6)nn5)cc4)C3)c(C)n2n1`: the logD in series [1] was determined as 1.4. The half-inhibitory concentration (IC50) in series [3] is more than 33 µM.

Take `Cc1nc2nc(C)c(C[C@@H]3CCN(c4ccc(-c5ccc(CN6CCN(C)CC6)nn5)cc4)C3)c(C)n2n1`: the pH-dependent lipophilicity (logD) in series [1] stood at 1.8. The IC50 in [3] is more than 33 µM.

`Cc1nc2nc(C)c(CCNC(=O)c3cnc(-c4ccccc4)cn3)c(C)n2n1`: the logD in series [1] came out at 2.4. Besides, the solubility in series [2] came out at 3 µM (≈ 1.16 µg/mL).

The compound `Cc1nc2nc(C)c(CCNC(=O)c3cnc(-c4ccc([C@H]5COCCN5C)cc4)cn3)c(C)n2n1` showed a logD in [1] of 1.9. Also, the solubility in series [2] worked out at 224 µM (≈ 109 µg/mL).

In [1], `Cc1nc2nc(C)c(C[C@@H]3CCN(c4ccc(-c5ccc(CN6CCOCC6)nn5)cc4)C3)c(C)n2n1` returned a pH-dependent lipophilicity (logD) of 2.3. In addition, in series [3], half-maximal inhibition (IC50) required 13 µM.

As for `Cc1nc2ncnn2c(C)c1CCC(=O)Nc1nnc(-c2ccccc2)s1`, in series [1], the log distribution coefficient (logD) is 2.5.

The compound `Cc1nc2nc(C)c(CCNC(=O)c3ccc(-c4ccccc4)cc3)c(C)n2n1` had a logD in [1] of 3.4. In [2], this compound came in with a solubility of 2 µM (≈ 0.771 µg/mL).

Regarding `CC(=O)N1CCN(Cc2ccc(-c3ccc(N4CC[C@@H](Oc5c(C)nc6nc(C)nn6c5C)C4)cc3)nn2)CC1`, the log distribution coefficient (logD) in series [1] was found to be 1.4. Moreover, the IC50 in series [3] is more than 33 µM.

`Cc1nc2nc(C)c(C[C@@H]3CCN(c4cnc(-c5ccc(CN6CCOCC6)cc5)cn4)C3)c(C)n2n1`: the half-inhibitory concentration (IC50) was less than 0.00038 µM in [22] and 1.8 µM in [3]. The logD in [1] was 2.6. The efflux ratio in series [23] was found to be 1.1. The values for the hepatocyte CLint in series [4] and in series [5] were 13 µL/min/1e6 cells and 3.4 µL/min/1e6 cells, respectively. Further, in series [6], the bioavailability is 47%. The compound further returned a clearance in series [7] of 53 mL/min/kg.
